Measured values from paper PMC11012124, “Synthesis of Novel Triazine-Based Chalcones and 8,9-dihydro-7H-pyrimido[4,5-b][1,4]diazepines as Potential Leads in the Search of Anticancer, Antibacterial and Antifungal Agents” (International Journal of Molecular Sciences, 2024).
In brackets after ≈: the same amount, converted by molar mass.

Assays:
60 cancer cell lines = assay: NCI-60 one-dose screen (10 μM); assay type: cell-based; conditions: Homo sapiens; one dose of 10 μM, mean over 60 cancer cell lines; read-out: Mean Growth Percent (MGP)
From the text: Additionally, the mean of the growth percentages (MGP) of each compound against all the 60 cancer cell lines is also reported, which is used as one of the selection criteria to continue with tests at five concentration doses.

[1] = test system: N. gonorrhoeae ATCC 49226; assay: MIC on GC agar plates; assay type: cell-based, Neisseria gonorrhoeae; conditions: Neisseria gonorrhoeae, ATCC49226, read-out: MIC
Procedure: An initial screening for bacterial inhibition was performed by the agar diffusion method. […] DMSO and TSB were included as negative controls. Gentamicin and trimethoprim sulfamethoxazole were included as a positive control for growth inhibition. Derivatives showing growth inhibition were tested at least twice before being selected for the microdilution test. For N. gonorrhoeae, the agar diffusion method was also used for screening with some modifications. […] Penicillin and tetracycline were used as controls. […] Briefly, GC agar supplemented with 1% isovitalex was prepared with increasing concentrations of the new compounds and inoculated with 10 µL of a bacterial suspension (1 × 10^4 CFU). The lowest concentration of the compound that inhibited bacterial growth was determined as the MIC. Bacterial growth was examined and verified using the oxidase test. The experiments were performed in duplicate in at least two independent assays.

[2] = test system: M. tuberculosis ATCC 27294; assay: Antitubercular broth microdilution MIC; assay type: cell-based; conditions: Mycobacterium tuberculosis; M. tuberculosis ATCC 27294 (H37Rv); read-out: Minimum inhibitory concentration (MIC)
[3] = Hemolytic activity, spectrophotometric; assay type: cell-based, human; conditions: human, human red blood cells (huRBC), 5% hematocrit, 200 μg/mL, 37 °C
[4] = test system: Microsporum gypseum (CCC 115); assay: Antifungal broth microdilution (CLSI); assay type: cell-based; conditions: Nannizzia gypsea; Mg: Microsporum gypseum
Procedure: (§1) Several of the obtained triazine derivatives were evaluated against sensitive fungal species comprising of two yeasts (Candida albicans (ATCC 10231), Cryptococcus neoformans (ATCC 32264)), three dermatophytes (Microsporum gypseum (CCC 115), Trichophyton rubrum (CCC 134-2000), Trichophyton mentagrophytes (CCC 202-2000)), and three Aspergillus fungi ((A. [NT] 26934), A. niger (ATCC 9029), and A. flavus (ATCC 9170)). […] Broth microdilution techniques were performed in 96-well microplates according to the Reference Method for Broth Dilution Antifungal Susceptibility Testing of Yeasts, document M27-A3 [86] and of Filamentous Fungi […]-A8 [87]. […] An inoculum suspension (100 μL) was added to each well (final well volume = 200 μL). One growth control well (containing medium, inoculum, and the same amount of DMSO as used for each compound) and one sterility control well (sample, medium, and sterile water instead of inoculum) were included for each fungus tested. Microtiter plates were incubated in a dark, humid chamber at 30 °C for the time necessary for each fungus. Amphotericin B, Terbinafine, Fluconazole and Itraconazole were used as a positive control. The tests were performed in triplicate.

[5] = test system: Trichophyton mentagrophytes (CCC 202-2000); assay: Antifungal broth microdilution (CLSI); assay type: cell-based; conditions: Tm: Trichophyton mentagrophytes
Procedure: as §1

[6] = test system: Trichophyton rubrum (CCC 134-2000); assay: Antifungal broth microdilution (CLSI); assay type: cell-based; conditions: Tr: Trichophyton rubrum
Procedure: as §1

[7] = test system: Candida albicans (ATCC 10231); assay: Antifungal broth microdilution (CLSI); assay type: cell-based; conditions: ATCC10231; Ca: Candida albicans
Procedure: as §1

[8] = test system: Cryptococcus neoformans (ATCC 32264); assay: Antifungal broth microdilution (CLSI); assay type: cell-based; conditions: ATCC32264; Cn: Cryptococcus neoformans
Procedure: as §1

| Structure (SMILES) | activity at 10 µM (60 cancer cell lines) [%] | MIC [1] [µg/mL] | hemolysis at 24 h, 200 µg/mL [3] [%] | further results |
| --- | --- | --- | --- | --- |
| COc1cc(C2CC(c3ccc(S(=O)(=O)NCCNc4nc(Nc5ccc(F)cc5)nc(N(C)C)n4)cc3)=Nc3c(N)nc(N)nc3N2)cc(OC)c1OC (stereo not shown) [31d] | 79.6 | 500 (≈ 646 µM) | 0.6 | MIC [2]: 5 µg/mL (≈ 6.46 µM) |
| COc1cc(/C=C/C(=O)c2ccc(C(F)(F)F)cc2)ccc1Oc1nc(Nc2ccc(F)cc2)nc(N(C)C)n1 [21g] | 73.2 | – | – | – |
| COc1ccc(C2CC(c3ccc(S(=O)(=O)NCCNc4nc(N(C)C)nc(N5CCOCC5)n4)cc3)=Nc3c(N)nc(N)nc3N2)cc1 (stereo not shown) [30c] | 84.3 | – | – | – |
| Cc1ccc(/C=C/C(=O)c2ccc(S(=O)(=O)NCCNc3nc(N(C)C)nc(N4CCOCC4)n3)cc2)cc1 [23b] | 72.3 | – | 1.8 | – |
| COc1cc(C2CC(c3ccc(Nc4nc(NCCO)nc(Nc5ccc(Cl)cc5)n4)cc3)=Nc3c(N)nc(N)nc3N2)cc(OC)c1OC (stereo not shown) [33d] | 65.3 | – | – | – |
| Cc1ccc(C2CC(c3ccc(Nc4nc(NCCO)nc(N5CCOCC5)n4)cc3)=Nc3c(N)nc(N)nc3N2)cc1 (stereo not shown) [32b] | 84.5 | 4 (≈ 6.86 µM) | 1 | – |
| COc1cc(C=O)ccc1Oc1nc(NCCO)nc(N2CCOCC2)n1 [compound 14] | 102 | – | – | – |
| COc1cc(C2CC(c3ccccc3)=Nc3c(N)nc(N)nc3N2)ccc1Oc1nc(NCCO)nc(N2CCOCC2)n1 (stereo not shown) [28a] | 98.8 | 4 (≈ 6.67 µM) | 3 | – |
| COc1cc(C2CC(c3ccccc3)=Nc3c(N)nc(N)nc3N2)ccc1Oc1nc(Nc2ccc(F)cc2)nc(N(C)C)n1 (stereo not shown) [29a] | 40.2 | 2 (≈ 3.29 µM) | 3 | MIC [2]: 5 µg/mL (≈ 8.23 µM) |
| Nc1nc(N)c2c(n1)NC(c1ccc(C(F)(F)F)cc1)CC(c1ccc(Nc3nc(NCCO)nc(N4CCOCC4)n3)cc1)=N2 (stereo not shown) [32g] | 64.8 | 4 (≈ 6.28 µM) | 2 | – |
| CN(C)c1nc(NCCNS(=O)(=O)c2ccc(C3=Nc4c(N)nc(N)nc4NC(c4ccccc4)C3)cc2)nc(N2CCOCC2)n1 (stereo not shown) [30a] | 85.4 | – | 0.6 | – |
| COc1cc(/C=C/C(=O)c2ccc(C(F)(F)F)cc2)ccc1Oc1nc(NCCO)nc(N2CCOCC2)n1 [20g] | 77.7 | – | – | – |
| COc1cc(/C=C/C(=O)c2ccc(Cl)cc2)ccc1Oc1nc(Nc2ccc(F)cc2)nc(N(C)C)n1 [21e] | 73.1 | – | – | – |
| COc1ccc(C2CC(c3ccc(Nc4nc(NCCO)nc(N5CCOCC5)n4)cc3)=Nc3c(N)nc(N)nc3N2)cc1 (stereo not shown) [32c] | 101 | – | – | – |
| CC(=O)c1ccc(S(=O)(=O)NCCNc2nc(Nc3ccc(F)cc3)nc(N(C)C)n2)cc1 [compound 18] | 104 | – | – | – |
| COc1ccc(C2CC(c3ccc(S(=O)(=O)NCCNc4nc(Nc5ccc(F)cc5)nc(N(C)C)n4)cc3)=Nc3c(N)nc(N)nc3N2)cc1 (stereo not shown) [31c] | 75.8 | 8 (≈ 11.2 µM) | 1.2 | MIC [2]: 1.2 µg/mL (≈ 1.68 µM) |
| COc1cc(/C=C/C(=O)c2ccc(F)cc2)ccc1Oc1nc(Nc2ccc(F)cc2)nc(N(C)C)n1 [21f] | 56 | 500 (≈ 993 µM) | 0.8 | – |
| COc1cc(C2CC(c3ccc(Cl)cc3)=Nc3c(N)nc(N)nc3N2)ccc1Oc1nc(NCCO)nc(N2CCOCC2)n1 (stereo not shown) [28e] | 70.2 | 8 (≈ 12.6 µM) | 5 | – |
| COc1cc(C2CC(c3ccc(Nc4nc(NCCO)nc(N5CCOCC5)n4)cc3)=Nc3c(N)nc(N)nc3N2)cc(OC)c1OC (stereo not shown) [32d] | 99.5 | 500 (≈ 759 µM) | – | – |
| COc1ccc(C(=O)/C=C/c2ccc(Oc3nc(Nc4ccc(F)cc4)nc(N(C)C)n3)c(OC)c2)cc1 [21c] | 48.4 | – | – | – |
| COc1cc(/C=C/C(=O)c2ccc(F)cc2)ccc1Oc1nc(NCCO)nc(N2CCOCC2)n1 [20f] | 72.4 | – | – | – |

| Structure (SMILES) | activity at 10 µM (60 cancer cell lines) [%] | MIC [1] [µg/mL] | hemolysis at 24 h, 200 µg/mL [3] [%] | further results |
| --- | --- | --- | --- | --- |
| NNC(=O)c1ccncc1 [Isoniazid, reference compound] | – | – | – | MIC [2]: 0.1 µg/mL (≈ 0.729 µM) |
| COc1cc(C2CC(c3ccc(C)cc3)=Nc3c(N)nc(N)nc3N2)ccc1Oc1nc(NCCO)nc(N2CCOCC2)n1 (stereo not shown) [28b] | 89.7 | 4 (≈ 6.52 µM) | 5 | – |
| CN(C/C=C/C#CC(C)(C)C)Cc1cccc2ccccc12 [Terbinafine, reference compound] | – | – | – | MIC [4]: 0.04 µg/mL (≈ 0.137 µM); MIC [5]: 0.025 µg/mL (≈ 0.0858 µM); MIC [6]: 0.01 µg/mL (≈ 0.0343 µM) |
| COc1cc(/C=C/C(=O)c2ccccc2)ccc1Oc1nc(NCCO)nc(N2CCOCC2)n1 [20a] | 92.1 | – | – | – |
| Nc1nc(N)c2c(n1)NC(c1ccc(Cl)cc1)CC(c1ccc(Nc3nc(NCCO)nc(N4CCOCC4)n3)cc1)=N2 (stereo not shown) [32e] | 74 | 1000 (≈ 1660 µM) | – | – |
| Nc1nc(N)c2c(n1)NC(c1ccc(F)cc1)CC(c1ccc(Nc3nc(NCCO)nc(N4CCOCC4)n3)cc1)=N2 (stereo not shown) [32f] | 89.1 | 2 (≈ 3.41 µM) | 5 | – |
| COc1ccc(/C=C/C(=O)c2ccc(S(=O)(=O)NCCNc3nc(N(C)C)nc(N4CCOCC4)n3)cc2)cc1 [23c] | 81.5 | – | 0 | – |
| COc1cc(C2CC(c3ccc(C)cc3)=Nc3c(N)nc(N)nc3N2)ccc1Oc1nc(Nc2ccc(F)cc2)nc(N(C)C)n1 (stereo not shown) [29b] | 51.3 | ≥ 500 | – | MIC [2]: 0.6 µg/mL (≈ 0.965 µM) |
| COc1cc(C=O)ccc1Oc1nc(Nc2ccc(F)cc2)nc(N(C)C)n1 [compound 15] | 64.5 | ≥ 500 | – | – |
| COc1ccc(C2=Nc3c(N)nc(N)nc3NC(c3ccc(Oc4nc(NCCO)nc(N5CCOCC5)n4)c(OC)c3)C2)cc1 (stereo not shown) [28c] | 102 | 0.5 (≈ 0.794 µM) | 7 | – |
| CN(C)c1nc(NCCNS(=O)(=O)c2ccc(C3=Nc4c(N)nc(N)nc4NC(c4ccc(Cl)cc4)C3)cc2)nc(N2CCOCC2)n1 (stereo not shown) [30e] | 48.9 | – | 2.7 | – |
| OC(Cn1cncn1)(Cn1cncn1)c1ccc(F)cc1F [Fluconazole, reference compound] | – | – | – | MIC [7]: 0.03 µg/mL (≈ 0.098 µM); MIC [8]: 0.25 µg/mL (≈ 0.816 µM) |
| COc1ccc(C2CC(c3ccc(Nc4nc(NCCO)nc(Nc5ccc(Cl)cc5)n4)cc3)=Nc3c(N)nc(N)nc3N2)cc1 (stereo not shown) [33c] | 63.3 | 2 (≈ 3.13 µM) | 5 | – |
| COc1ccc(C(=O)/C=C/c2ccc(Oc3nc(NCCO)nc(N4CCOCC4)n3)c(OC)c2)cc1 [20c] | 72 | – | – | – |
| COc1cc(C2CC(c3ccc(F)cc3)=Nc3c(N)nc(N)nc3N2)ccc1Oc1nc(NCCO)nc(N2CCOCC2)n1 (stereo not shown) [28f] | 98.2 | 8 (≈ 13 µM) | 2 | – |
| CCC(C)n1ncn(-c2ccc(N3CCN(c4ccc(OCC5COC(Cn6cncn6)(c6ccc(Cl)cc6Cl)O5)cc4)CC3)cc2)c1=O (stereo not shown) [Itraconazole, reference compound] | – | – | – | MIC [7]: 0.5 µg/mL (≈ 0.709 µM) |
| Nc1nc(N)c2c(n1)NC(c1ccccc1)CC(c1ccc(Nc3nc(NCCO)nc(N4CCOCC4)n3)cc1)=N2 (stereo not shown) [32a] | 87.2 | 8 (≈ 14.1 µM) | 2 | – |
| COc1cc(C2CC(c3cc(OC)c(OC)c(OC)c3)=Nc3c(N)nc(N)nc3N2)ccc1Oc1nc(NCCO)nc(N2CCOCC2)n1 (stereo not shown) [28d] | 98.9 | 2 (≈ 2.9 µM) | 1 | – |
| Cc1ccc(C2CC(c3ccc(S(=O)(=O)NCCNc4nc(N(C)C)nc(N5CCOCC5)n4)cc3)=Nc3c(N)nc(N)nc3N2)cc1 (stereo not shown) [30b] | 49.9 | – | 0.2 | – |
| COc1cc(/C=C/C(=O)c2ccc(Cl)cc2)ccc1Oc1nc(NCCO)nc(N2CCOCC2)n1 [20e] | 94.7 | – | – | – |
| CN(C)c1nc(NCCNS(=O)(=O)c2ccc(C3=Nc4c(N)nc(N)nc4NC(c4ccc(F)cc4)C3)cc2)nc(N2CCOCC2)n1 (stereo not shown) [30f] | 72.8 | – | – | – |
